Test results reported in patent publication US20170238571A1, “A SYNERGISTIC COMPOSITION COMPRISING A MIXTURE OF BACTERIA OF THE GENERA LACTOBACILLUS AND PROPIONOBACTERIUM PARTICULARLY USEFUL TO REDUCE OR ELIMINATE PATHOGEN CONTAMINATION IN SOYBEN MEAL AND ITS DERIVATIVES; METHODS AND USES THEREOF” (Molinos Río de la Plata S.A., priority 2014, published 2017).

Tests used:
Format in all cases: cell-based
[1] = system: Salmonella (S. typhimurium, S. enteritidis, S. heidelberg); test: Effectiveness of mixes against Salmonella in soybean meal with 8% DBM; details: 25° C. - 8% DBM; for Average (n = 3): Salmonella count; for LOG10 (CFU/g): Salmonella
Description: In order to assess the effectiveness of the mix of the invention in the matrix of interest, an appropriate working protocol was prepared. Initially, 500 g of soybean meal were infected with 50 mL of Salmonella solution whose composition was: 10^6 CFUS. typhimurium/mL, 10^6 CFUS. enteritidis /mLand 10^6 CFUS. heidelberg /mL in equal amounts. […] 50 g of the wet meal obtained (≈25% moisture content on dry basis) were mixed within the dry meal (≈10% moisture content dry basis) and were stirred for 10 minutes. […] Daily determinations of Salmonella colony forming units were performed on this contaminated meal. To this end, 40.5 g of BPW to 4.5 g of the resulting meal were added and vigorously stirred, and then 100μL of this solution, were plated onto Salmonella-Shigella agar (SS Agar). When microorganisms were used in the protecting mixes, concentrations were carefully balanced, and the amount of bacteria added was always the same.
In the cases in which solutions with ferments were used for protection purposes, cell concentration was of about 10^8 CFU/mL.
After oil is stripped from the soybean flakes during the extraction process, the latter goes through a desolventizer to evaporate the residual hexane remaining after extraction. This process adds moisture to the flakes, since desolventizing is a process that uses steam. Once the soybean flake is desolventized, it is dried to obtain the desired moisture level. The moisture content assessed on a dry basis of a typical meal product is around 11-12% DBM; however, at present we can find meals on the market with a moisture content ranging from 8-13% DBM. The effectiveness of the mix of the invention was tested in meals with different moisture contents.

Salmonella = test: Residual effect: contamination and recontamination with Salmonella after treatment of soybean meal; details: 25° C. - 12% DBM; for Average (n = 3): Salmonella count; for LOG10 (CFU/g): Salmonella
Description: In order to assess the effectiveness of the mix of the invention in the matrix of interest, an appropriate working protocol was prepared. Initially, 500 g of soybean meal were infected with 50 mL of Salmonella solution whose composition was: 10^6 CFUS. typhimurium/mL, 10^6 CFUS. enteritidis /mLand 10^6 CFUS. heidelberg /mL in equal amounts. […] Daily determinations of Salmonella colony forming units were performed on this contaminated meal. To this end, 40.5 g of BPW to 4.5 g of the resulting meal were added and vigorously stirred, and then 100μL of this solution, were plated onto Salmonella-Shigella agar (SS Agar). When microorganisms were used in the protecting mixes, concentrations were carefully balanced, and the amount of bacteria added was always the same.
For this reason it was decided to study the response of meals protected with different solutions, by contaminating them at different times after protection. Given the complexity of the logistics of meal products, they were tested at two different times: initial contamination and recontamination on the first week after treatment; and, contamination on the fourth week with subsequent recontamination on the fifth week after treatment. In all cases, itl was contaminated and recontaminated with Salmonella solutions whose concentration was approximately 10^6 CFU/mL (as previously described).

[2] = system: Aspergillus niger ATCC 16404; test: Protection against fungi: A. niger in premixed soybean meal; details: 25° C. - 12% DBM; for Average (n = 3): A. niger count; for LOG10 (CFU/g): A. niger
Description: For the determination of fungal CFU, 20 grams of soybean meal were added to 180 mL of sterile tap water with Tween 80, which was vigorously stirred. Serial dilutions of the sample were carried out in order to perform recounting on the appropriate plates, in a Czapek-Dox agar medium.

[3] = day 8, after RECONTAMINATION (first week)
[4] = day 9, after RECONTAMINATION (first week)
[5] = day 11, after RECONTAMINATION (first week)
[6] = day 12, after RECONTAMINATION (first week)
[7] = day 13, after RECONTAMINATION (first week)
[8] = day 14, after RECONTAMINATION (first week)
[9] = day 15, after RECONTAMINATION (first week)
[10] = day 37, contamination on the fourth week after treatment
[11] = day 38, after RECONTAMINATION (fifth week)
[12] = day 39, after RECONTAMINATION (fifth week)
[13] = day 41, after RECONTAMINATION (fifth week)
[14] = day 42, after RECONTAMINATION (fifth week)
[15] = day 44, after RECONTAMINATION (fifth week)

In the case of CCC(=O)O [Propionic Acid], the “Average (n = 3)” value ([1]; 0 hours) is reported as 199.67, the “Average (n = 3)” value ([1]; 12 hours) is reported as 175 and the “Average (n = 3)” value ([1]; 24 hours) is reported as 130. The “Average (n = 3)” value ([1]; 36 hours) was 100.33, the “Average (n = 3)” value ([1]; 48 hours) was 90.67 and the “Average (n = 3)” value ([1]; 60 hours) was 77. The “Average (n = 3)” value ([1]; 72 hours) was 58, the “Average (n = 3)” value ([1]; 84 hours) was 32.33 and the “Average (n = 3)” value ([1]; 96 hours) was 15. For the same compound, the “LOG10 (CFU/g)” value ([1]; 0 hours) was 3.65 LOG10 (CFU/g), the “LOG10 (CFU/g)” value ([1]; 12 hours) was 3.59 LOG10 (CFU/g) and the “LOG10 (CFU/g)” value ([1]; 24 hours) was 3.46 LOG10 (CFU/g). The “LOG10 (CFU/g)” value ([1]; 36 hours) was 3.35 LOG10 (CFU/g), the “LOG10 (CFU/g)” value ([1]; 48 hours) was 3.30 LOG10 (CFU/g) and the “LOG10 (CFU/g)” value ([1]; 60 hours) was 3.23 LOG10 (CFU/g). The “LOG10 (CFU/g)” value ([1]; 72 hours) was 3.11 LOG10 (CFU/g), the “LOG10 (CFU/g)” value ([1]; 84 hours) was 2.85 LOG10 (CFU/g) and the “LOG10 (CFU/g)” value ([1]; 96 hours) was 2.52 LOG10 (CFU/g). For the same compound, the “Average (n = 3)” value (Salmonella; day 2, initial contamination) was 130, the “Average (n = 3)” value (Salmonella; day 3, initial contamination) was 100.3 and the “Average (n = 3)” value (Salmonella; day 4, initial contamination) was 90.5. The “Average (n = 3)” value (Salmonella; day 5, initial contamination) was 77, the “Average (n = 3)” value (Salmonella; day 6, initial contamination) was 58 and the “Average (n = 3)” value (Salmonella; day 7, initial contamination) was 32. The “Average (n = 3)” value (Salmonella; [3]) was 215, the “Average (n = 3)” value (Salmonella; [4]) was 189.33 and the “Average (n = 3)” value (Salmonella; day 10, after RECONTAMINATION (first week)) was 144.33. The “Average (n = 3)” value (Salmonella; [5]) was 109, the “Average (n = 3)” value (Salmonella; [6]) was 96.67 and the “Average (n = 3)” value (Salmonella; [7]) was 70.67. For the same compound, the “Average (n = 3)” value (Salmonella; [8]) was 48.67, the “Average (n = 3)” value (Salmonella; [9]) was 40 and the “Average (n = 3)” value (Salmonella; day 32, contamination on the fourth week after treatment) was 130. For the same compound, the “Average (n = 3)” value (Salmonella; day 33, contamination on the fourth week after treatment) was 120.3, the “Average (n = 3)” value (Salmonella; day 34, contamination on the fourth week after treatment) was 90.5 and the “Average (n = 3)” value (Salmonella; day 35, contamination on the fourth week after treatment) was 77. The “Average (n = 3)” value (Salmonella; day 36, contamination on the fourth week after treatment) was 58, the “Average (n = 3)” value (Salmonella; [10]) was 39 and the “Average (n = 3)” value (Salmonella; [11]) was 247. The “Average (n = 3)” value (Salmonella; [12]) was 189, the “Average (n = 3)” value (Salmonella; day 40, after RECONTAMINATION (fifth week)) was 174.34 and the “Average (n = 3)” value (Salmonella; [13]) was 156.34. For the same compound, the “Average (n = 3)” value (Salmonella; [14]) was 136.34, the “Average (n = 3)” value (Salmonella; day 43, after RECONTAMINATION (fifth week)) was 111.67 and the “Average (n = 3)” value (Salmonella; [15]) was 88.34. The “Average (n = 3)” value (Salmonella; day 45, after RECONTAMINATION (fifth week)) was 77, the “LOG10 (CFU/g)” value (Salmonella; [3]) was 3.68 LOG10 (CFU/g) and the “LOG10 (CFU/g)” value (Salmonella; [4]) was 3.62 LOG10 (CFU/g). The “LOG10 (CFU/g)” value (Salmonella; [5]) was 3.38 LOG10 (CFU/g), the “LOG10 (CFU/g)” value (Salmonella; [6]) was 3.33 LOG10 (CFU/g) and the “LOG10 (CFU/g)” value (Salmonella; [7]) was 3.20 LOG10 (CFU/g). The “LOG10 (CFU/g)” value (Salmonella; [8]) was 3.03 LOG10 (CFU/g), the “LOG10 (CFU/g)” value (Salmonella; [9]) was 2.95 LOG10 (CFU/g) and the “LOG10 (CFU/g)” value (Salmonella; [10]) was 2.94 LOG10 (CFU/g). The “LOG10 (CFU/g)” value (Salmonella; [11]) was 3.74 LOG10 (CFU/g), the “LOG10 (CFU/g)” value (Salmonella; [12]) was 3.62 LOG10 (CFU/g) and the “LOG10 (CFU/g)” value (Salmonella; [13]) was 3.54 LOG10 (CFU/g). The “LOG10 (CFU/g)” value (Salmonella; [14]) was 3.48 LOG10 (CFU/g), the “LOG10 (CFU/g)” value (Salmonella; [15]) was 3.29 LOG10 (CFU/g) and the “Average (n = 3)” value ([2]; 0 days) was 199.76. For the same compound, the “Average (n = 3)” value ([2]; 1 day) was 152, the “Average (n = 3)” value ([2]; 2 days) was 121.33 and the “Average (n = 3)” value ([2]; 3 days) was 91.67. The “Average (n = 3)” value ([2]; 4 days) was 78, the “Average (n = 3)” value ([2]; 5 days) was 57 and the “Average (n = 3)” value ([2]; 6 days) was 38. For the same compound, the “LOG10 (CFU/g)” value ([2]; 0 days) was 3.65 LOG10 (CFU/g), the “LOG10 (CFU/g)” value ([2]; 1 day) was 3.53 LOG10 (CFU/g) and the “LOG10 (CFU/g)” value ([2]; 2 days) was 3.43 LOG10 (CFU/g). The “LOG10 (CFU/g)” value ([2]; 3 days) was 3.31 LOG10 (CFU/g), the “LOG10 (CFU/g)” value ([2]; 4 days) was 3.24 LOG10 (CFU/g) and the “LOG10 (CFU/g)” value ([2]; 5 days) was 3.10 LOG10 (CFU/g). The “LOG10 (CFU/g)” value ([2]; 6 days) was 2.93 LOG10 (CFU/g).
